Results on three molecules are retold here after patent publication US9005580B2, “Treatment of renal cell carcinoma” (priority 2010, dated 2015).

The conditions of data set [1]: compared to BCNU; cited from earlier work.
Another data set concerns xenografts in nude mice. The conditions noted are these: in some cases; cited from earlier work.
Data set [2] relates to human renal cell carcinomas (SKRC-7, 786-0). Type of data set: cell-based.
The test system of a further data set is Sprague-Dawley rats. The conditions noted are these: corresponding amounts of unconjugated Orellanine, within four days; cited from earlier work.
Another data set concerns human renal cancer cells. The conditions noted are these: cells derived from a primary tumor or from metastatic tumor tissue; cited from earlier work.

SMILES strings stand for the structures.

As for `O=NN(CCCl)C(=O)NCCO` [HECNU, 1-(2-chloroethyl)-1-nitroso-3-(2-hydroxyethyl)urea], the water solubility entry in data set [1] is “improved water solubility”.
As for `Cc1cc(N(CCOS(C)(=O)=O)CCOS(C)(=O)=O)ccc1C=O` [NSC-281612], in the data set on xenografts in nude mice, the “effect on tumor mass” value was “apparently complete eradication of the tumor mass”.
Take `[O-][n+]1ccc(O)c(O)c1-c1c(O)c(O)cc[n+]1[O-]` [Orellanine, 3,3′,4,4′-tetrahydroxy-2,2′-bipyridine-N,N′-dioxide]: in data set [2], the “correlation between exposure concentration and fraction of cells that die” value was “clear correlation”; the “delay between administration and onset of cell death” value was determined as 48 h. In the data set with Sprague-Dawley rats, the “loss of GFR” value is recorded as “almost total loss of GFR”. In addition, the “killing of renal cancer cells” value with human renal cancer cells is reported as “kills them with great efficiency”.
